In patent US20060035968A1, “Composition for preventing cancer comprising 2'-benzoyl-oxycinnamaldehyde” (Korea Research Institute of Bioscience and Biotechnology, priority 2004, published 2006):
Entries after “also recorded” stand apart in the source; their conditions may differ.

Legend:
[1] = animal test, J. Toxicol. Pub. Health, 2003, 19, 259-266; cited from earlier work
angiogenesis = details: J. Biological Chemistry, 279(8), 6911-6920, 2004; cited from earlier work
splenocytes = assay: Splenocyte proliferation by [3H]-thymidine after LPS or ConA stimulation; format: cell-based, mouse; details: splenocytes of treated mice stimulated with ConA, 48 hours, FIG. 3B
Method: On the other hand, 2×10^5 splenocytes were aliquotted into a 96-well plate, stimulated with a cell proliferation inducer, LPS (lipopolysaccharide) or ConA (concanavalin A), and cultured for 48 hours. 1 μCi of [^3H]-thymidine was added to each well, followed by incubation for 6 hours. Cells were harvested on a nitrocellulose membrane, and radiation activity was measured using a beta scintillation counter (Wallac, Turku, Finland) to investigate proliferation ability of splenocytes.

[2] = tested on: H-ras 12V-overexpressing mouse; assay: Splenocyte number in H-ras-transgenic mouse; format: in vivo; details: 50 mg/kg i.p. once every two days for 10 weeks, Tg mouse vs control group (NTg), FIG. 3A
Method: A neonatal […] H-ras 12V-overexpressing mouse (KCTC 10318 BP) was intraperitoneally administered with 50 mg/kg of BCA and HCA (prepared by extracting the stem bark of C. cassia with organic solvents such as methanol and performing an isolation and purification process by various column chromatography methods) for ten weeks once every two days. Six months after birth, the spleen was excised from the mouse, and a single cell suspension was prepared. Red blood cells were removed from the single cell suspension using a RBC lysis solution (Sigma), and the number of splenocytes was counted under a microscope.

[3] = tested on: H-ras 12V-overexpressing mouse; assay: Effect of BCA on incidence of liver cancer in H-ras-overexpressing mouse (liver histology); format: in vivo
Method: A neonatal […] H-ras 12V-overexpressing mouse (KCTC 10318 BP) was intraperitoneally administered with 50 mg/kg of BCA (prepared by reacting 2′-hydroxy-cinnamaldehyde (HCA) isolated from the stem bark of C. cassia with benzoyl chloride in the presence of triethylamine) for ten weeks once every two days. Six months after birth, the liver tissue was excised from the mouse in an aseptic state, fixed with a formaldehyde solution, and embedded in paraffin. The resulting paraffin block was sectioned into a thickness of 4 μm using a microtome (LEICA Company), and tissue sections were attached onto slides. The tissue was then stained with hematoxylin/eosin and observed under a reverse phased microscope (Model: Bx 50, Olympus Company).

[4] = biological target: farnesyl-protein transferase (Homo sapiens, UniProt P49356); details: in vitro; cited from earlier work
tumor cell growth = details: J. Biological Chemistry, 279(8), 6911-6920, 2004; cited from earlier work
[5] = tested on: human retinal pigment epithelial (hRPE) cells; details: IOVS, 43(9), 3117-3124, 2002; cited from earlier work
[6] = tested on: proliferative vitreoretinopathy (PVR) model in rabbits; details: IOVS, 43(9), 3117-3124, 2002; cited from earlier work
[7] = 50 mg/kg i.p. once every two days for ten weeks, six months after birth

Row | Compound | toxicity in vivo [1] | inhibition of angiogenesis (angiogenesis) | T cell response (splenocyte proliferation) (splenocytes) | cell number in the spleen (splenocyte number) [2] | cell number in the spleen (splenocyte number) ([2]; listed as BSA) | portion progressed to cancer in the liver ([3]; 50 mg/kg i.p. once every two days for ten weeks from 4 months old, liver at six months, vs control FIG. 1A) | number of immune cells in the liver [3, 7] | tumor progression to liver cancer [3, 7] | inhibition of farnesyl-protein transferase [4] | inhibition of tumor cell growth (tumor cell growth) | apoptosis in hRPE cells [5] | antiproliferative effect in PVR model [6]
1 | O=C/C=C/c1ccccc1OC(=O)c1ccccc1 [BCA, 2′-benzoyloxycinnamaldehyde] | no toxicity | inhibitory effects | highest T cell response | increased cell number | largest increase | remarkably reduced | increased | inhibited | inhibit; also recorded: inhibitory effects | inhibitory effects | induces apoptosis | antiproliferative effect
2 | O=CC=Cc1ccccc1O [HCA, 2′-hydroxycinnamaldehyde, reference compound] |  | inhibitory effects |  | increased cell number |  |  |  |  | inhibitory effects | inhibitory effects |  | 
